Source: PMC8405639, “2-Carba-lysophosphatidic acid is a novel β-lysophosphatidic acid analogue with high potential for lysophosphatidic acid receptor activation and autotaxin inhibition” (Scientific Reports, 2021)
Blank lines part the entries; values can stand above or below the molecule they belong to.

Columns and labels:
[1] = 2carbaLPA detection in rat plasma after oral 2ccPA capsule; type: in vivo; details: oral gastro-resistant (entero-soluble) capsule of 2ccPA, 0-10 h
Text: Supplementary Figure S5. 2-carba-lysophosphatidic acid (2carbaLPA) produced in rat plasma from rats administered 2-carba-cyclic phosphatidic acid (2ccPA) as a gastro-resistant capsule. Rats were orally administered with 2ccPA containing capsule and 2carbaLPA produced in plasma was detected using liquid chromatography with tandem mass spectrometry (LC-QqQ) and presented as peak area (counts). Data are represented as mean ± standard deviation (n = 5 rat samples).
Preparation of 2ccPA intended to be administered as a gastro-resistant capsule, administration of the prepared 2ccPA in rats, and extraction of lipids from plasma samples were performed as per previously described methods^1. The experimental protocols were approved by the Animal Research Committee of the Saitama Medical University (approval number; 2113). Briefly, each capsule was filled with 19.70 ± 1.39 mg of 2ccPA and enteric-coated. Male 7-week-old Sprague Dawley rats were orally administrated with a single capsule and blood was collected from the jugular vein using a catheter from 0 to 10 h. Plasma was obtained by mixing with EDTA-Na2 (1 mg/mL), and the lipid fraction was extracted by adding acidic methanol, including LPA 17:0 (final concentration: 100 nM; Avanti Polar Lipids) as internal standard. Analysis for detection of 2carbaLPA with LC-QqQ was performed as above.

[2] = cPA analogue stability in the 293A cell medium; type: in vitro ADME; details: 10 µM, 37 °C, 293A (HEK) cell medium
Procedure: Supplementary Figure S3. Cyclic phosphatidic acid (cPA) analogue stability in the HEK cell medium. Each cPA analogue (final concentration: 10 µM) was incubated with the HEK cell medium for 1 h at 37 °C. The remaining cPA analogue was quantified using liquid chromatography with tandem mass spectrometry (LC-QqQ) and calculated based on the percentage (%) ratio of the final concentration after incubation to the initial concentration. Data are represented as mean ± standard deviation (n = 3 samples).
293A cells were prepared in Hank’s balanced salt solution (HBSS) in 96-well plates. […] After incubation for 1 h at 37 ℃, 80 µL of the supernatant was collected and mixed with 320 µL of acidic methanol, including LPA 17:0 and cPA 17:0 (final concentration: 0.2 µM each; Avanti Polar Lipids, Alabaster, AL, USA).

LPA3 = details: Ca2+ mobilization, RH7777 and CHO cells, less than 2 min incubation ref 17; cited from earlier work
LPA4 = details: Ca2+ mobilization, RH7777 and CHO cells, less than 2 min incubation ref 17; cited from earlier work
[3] = Degradation under acidic conditions (artificial gastric juice); type: physicochemical; details: artificial gastric juice pH 1.2, 2 h, 37 °C
Procedure: 2ccPA was dissolved in artificial gastric juice (2 g NaCl and 12 M HCl 7 mL/1000 mL water at pH 1.2) at a final concentration of 1 mg/mL and incubated for 2 h at 37 °C. Lipid fraction was extracted by 4 volumes of chloroform/methanol (2:1, v/v) and separated by TLC as per previously reported. Extraction from the silica powder of TLC was performed by addition of 8 mL of chloroform/methanol (1:9, v/v) and it was repeated three times. After filtration (0.2 μm Captiva Premium syringe PTFE filter, Agilent Technologies, Santa Clara, CA, USA), the sample was diluted 100-fold with 5 mM ammonium formate in methanol/water (95:5, v/v) and subjected to QqTOF. The 3ccPA degradation compound was also prepared using the same method. The purity of the degradation compound was confirmed to be more than 95% by TLC, QqTOF, and LC-QqQ. Quantification was performed by weighing the purified sample after dried more than 24 h in the desiccator equipped with a vacuum pump.

[4] = set-up: method as in PMID 32298781; details: acidic conditions ref 16; cited from earlier work

2carbaLPA in plasma after administration of 2ccPA [1]: detectable
SMILES: CCCCCCCC/C=C\CCCCCCCC(=O)OCC(CO)CP(=O)(O)O (stereo not drawn) [2carbaLPA 18:1, 2-carba-lysophosphatidic acid]

Stability during 1 h [2]: mostly stable
SMILES: CCCCCCCC/C=C\CCCCCCCC(=O)OC[C@@H](O)CCP(=O)(O)O [3carba LPA 18:1, 3-carba-lysophosphatidic acid]
Activity relative to LPA (times weaker), LPA3 (LPA3): more than 10 times | Activity relative to LPA (times weaker), LPA4 (LPA4): more than 10 times

SMILES: CCCCCCCC/C=C\CCCCCCCC(=O)OC[C@@H]1CCP(=O)(O)O1 [3ccPA 18:1, 3-carba-cyclic phosphatidic acid]
Conversion under acidic condition [3]: converted to the corresponding 3-carba-lysophosphatidic acid

SMILES: CCCCCCCC/C=C\CCCCCCCC(=O)OCC1COP(=O)(O)C1 (stereo not drawn) [2ccPA 18:1, 2-carba-cyclic phosphatidic acid]
Degradation under acidic conditions [4]: degraded under acidic conditions
